Results taken from PubChem BioAssay AID272 (DTP/NCI, 2004).
Where “and” joins values, the source holds several entries; their conditions need not be identical. Identical values can stand only once. Inconclusive results are not listed.

System: Lewis lung carcinoma i.m., BDF1 mice, T/C %
Experiment: NCI In Vivo Anticancer Drug Screen. Data for tumor model Lewis Lung Carcinoma (intramuscular) in B6D2F1 (BDF1) mice
How it was run: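 Mice carrying transplantable tumours received test compound. Survival or tumour size was recorded and expressed as the treated-group value (T) divided by the vehicle-treated control-group value (C).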

## CCc1nc(N)nc(N)c1-c1ccc(Cl)cc1
endpoint: mean tumor weight, dose: 64.0 mg/kg/injection, schedule: Q01DX009 (ip), vehicle: Klucel (hydroxypropylcellulose) (HPC), higher = larger tumour
  T/C: 26 % of control
endpoint: mean tumor weight, dose: 64.0 mg/kg/injection, schedule: Q01DX009 (sc), vehicle: Klucel (hydroxypropylcellulose) (HPC), higher = larger tumour
  T/C: 41 % of control
endpoint: mean tumor weight, dose: 64.0 mg/kg/injection, schedule: Q04DX003 (ip), vehicle: Klucel (hydroxypropylcellulose) (HPC), higher = larger tumour
  T/C: 70 % of control and 93 % of control
endpoint: mean tumor weight, dose: 64.0 mg/kg/injection, schedule: Q08DX002 (ip), vehicle: Klucel (hydroxypropylcellulose) (HPC), higher = larger tumour
  T/C: 72 % of control and 81 % of control
endpoint: mean tumor weight, dose: 128.0 mg/kg/injection, schedule: Q01DX001 (ip), vehicle: Klucel (hydroxypropylcellulose) (HPC), higher = larger tumour
  T/C: 81 % of control
endpoint: mean tumor weight, dose: 128.0 mg/kg/injection, schedule: Q01DX001 (oral), vehicle: Klucel (hydroxypropylcellulose) (HPC), higher = larger tumour
  T/C: 82 % of control
endpoint: mean tumor weight, dose: 128.0 mg/kg/injection, schedule: Q01DX001 (sc), vehicle: Klucel (hydroxypropylcellulose) (HPC), higher = larger tumour
  T/C: 50 % of control
endpoint: mean tumor weight, dose: 128.0 mg/kg/injection, schedule: Q04DX003 (ip), vehicle: Klucel (hydroxypropylcellulose) (HPC), higher = larger tumour
  T/C: 71 % of control
endpoint: median survival time, dose: 2.0 mg/kg/injection, schedule: Q06HX008 (ip), vehicle: Klucel (hydroxypropylcellulose) (HPC), higher = longer survival
  T/C: 92 % of control
endpoint: median survival time, dose: 4.0 mg/kg/injection, schedule: Q01DX009 (ip), vehicle: Klucel (hydroxypropylcellulose) (HPC), higher = longer survival
  T/C: 95 % of control
endpoint: median survival time, dose: 4.0 mg/kg/injection, schedule: Q01DX009 (sc), vehicle: Klucel (hydroxypropylcellulose) (HPC), higher = longer survival
  T/C: 100 % of control
endpoint: median survival time, dose: 4.0 mg/kg/injection, schedule: Q06HX004 (ip), vehicle: Klucel (hydroxypropylcellulose) (HPC), higher = longer survival
  T/C: 107 % of control
endpoint: median survival time, dose: 4.0 mg/kg/injection, schedule: Q06HX008 (ip), vehicle: Klucel (hydroxypropylcellulose) (HPC), higher = longer survival
  T/C: 88 % of control and 104 % of control
endpoint: median survival time, dose: 8.0 mg/kg/injection, schedule: Q01DX001 (sc), vehicle: Klucel (hydroxypropylcellulose) (HPC), higher = longer survival
  T/C: 104 % of control
endpoint: median survival time, dose: 8.0 mg/kg/injection, schedule: Q01DX009 (ip), vehicle: Klucel (hydroxypropylcellulose) (HPC), higher = longer survival
  T/C: 104 % of control
endpoint: median survival time, dose: 8.0 mg/kg/injection, schedule: Q01DX009 (oral), vehicle: Klucel (hydroxypropylcellulose) (HPC), higher = longer survival
  T/C: 104 % of control
endpoint: median survival time, dose: 8.0 mg/kg/injection, schedule: Q04DX003 (ip), vehicle: Klucel (hydroxypropylcellulose) (HPC), higher = longer survival
  T/C: 94 % of control
endpoint: median survival time, dose: 8.0 mg/kg/injection, schedule: Q06HX004 (ip), vehicle: Klucel (hydroxypropylcellulose) (HPC), higher = longer survival
  T/C: 109 % of control
endpoint: median survival time, dose: 8.0 mg/kg/injection, schedule: Q06HX008 (ip), vehicle: Klucel (hydroxypropylcellulose) (HPC), higher = longer survival
  T/C: 100 % of control
endpoint: median survival time, dose: 8.0 mg/kg/injection, schedule: Q06HX012 (ip), vehicle: Klucel (hydroxypropylcellulose) (HPC), higher = longer survival
  T/C: 107 % of control
endpoint: median survival time, dose: 8.0 mg/kg/injection, schedule: Q08DX002 (ip), vehicle: Klucel (hydroxypropylcellulose) (HPC), higher = longer survival
  T/C: 94 % of control
endpoint: median survival time, dose: 12.5 mg/kg/injection, schedule: Q01DX011 (ip), vehicle: steriod suspending solution, higher = longer survival
  T/C: 103 % of control
endpoint: median survival time, dose: 16.0 mg/kg/injection, schedule: Q01DX001 (ip), vehicle: Klucel (hydroxypropylcellulose) (HPC), higher = longer survival
  T/C: 100 % of control
endpoint: median survival time, dose: 16.0 mg/kg/injection, schedule: Q01DX001 (sc), vehicle: Klucel (hydroxypropylcellulose) (HPC), higher = longer survival
  T/C: 96 % of control
endpoint: median survival time, dose: 16.0 mg/kg/injection, schedule: Q01DX009 (ip), vehicle: Klucel (hydroxypropylcellulose) (HPC), higher = longer survival
  T/C: 108 % of control
endpoint: median survival time, dose: 16.0 mg/kg/injection, schedule: Q01DX009 (oral), vehicle: Klucel (hydroxypropylcellulose) (HPC), higher = longer survival
  T/C: 100 % of control
endpoint: median survival time, dose: 16.0 mg/kg/injection, schedule: Q01DX009 (sc), vehicle: Klucel (hydroxypropylcellulose) (HPC), higher = longer survival
  T/C: 109 % of control
endpoint: median survival time, dose: 16.0 mg/kg/injection, schedule: Q04DX003 (ip), vehicle: Klucel (hydroxypropylcellulose) (HPC), higher = longer survival
  T/C: 92 % of control and 100 % of control
endpoint: median survival time, dose: 16.0 mg/kg/injection, schedule: Q06HX008 (ip), vehicle: Klucel (hydroxypropylcellulose) (HPC), higher = longer survival
  T/C: 98 % of control
endpoint: median survival time, dose: 32.0 mg/kg/injection, schedule: Q01DX001 (ip), vehicle: Klucel (hydroxypropylcellulose) (HPC), higher = longer survival
  T/C: 102 % of control
endpoint: median survival time, dose: 32.0 mg/kg/injection, schedule: Q01DX001 (oral), vehicle: Klucel (hydroxypropylcellulose) (HPC), higher = longer survival
  T/C: 104 % of control
endpoint: median survival time, dose: 32.0 mg/kg/injection, schedule: Q01DX001 (sc), vehicle: Klucel (hydroxypropylcellulose) (HPC), higher = longer survival
  T/C: 104 % of control
endpoint: median survival time, dose: 32.0 mg/kg/injection, schedule: Q04DX003 (ip), vehicle: Klucel (hydroxypropylcellulose) (HPC), higher = longer survival
  T/C: 92 % of control
endpoint: median survival time, dose: 32.0 mg/kg/injection, schedule: Q08DX002 (ip), vehicle: Klucel (hydroxypropylcellulose) (HPC), higher = longer survival
  T/C: 86 % of control and 102 % of control
endpoint: median survival time, dose: 64.0 mg/kg/injection, schedule: Q01DX001 (oral), vehicle: Klucel (hydroxypropylcellulose) (HPC), higher = longer survival
  T/C: 104 % of control
endpoint: median survival time, dose: 64.0 mg/kg/injection, schedule: Q01DX001 (sc), vehicle: Klucel (hydroxypropylcellulose) (HPC), higher = longer survival
  T/C: 90 % of control and 100 % of control
endpoint: median survival time, dose: 64.0 mg/kg/injection, schedule: Q01DX009 (sc), vehicle: Klucel (hydroxypropylcellulose) (HPC), higher = longer survival
  T/C: 104 % of control
endpoint: median survival time, dose: 64.0 mg/kg/injection, schedule: Q04DX003 (ip), vehicle: Klucel (hydroxypropylcellulose) (HPC), higher = longer survival
  T/C: 96 % of control and 109 % of control
endpoint: median survival time, dose: 128.0 mg/kg/injection, schedule: Q01DX001 (ip), vehicle: Klucel (hydroxypropylcellulose) (HPC), higher = longer survival
  T/C: 107 % of control
endpoint: median survival time, dose: 128.0 mg/kg/injection, schedule: Q01DX001 (oral), vehicle: Klucel (hydroxypropylcellulose) (HPC), higher = longer survival
  T/C: 102 % of control
